Test systems include DU-145 prostate; HCT-116 colon; HT29 colon; IGROV1 ovarian; MCF7 breast; NCI-H226 lung; OVCAR-3 ovarian; OVCAR-8 ovarian; SK-MEL-5 melanoma; SK-OV-3 ovarian.
Common to all, as to test: NCI tumour cell line growth inhibition, 48 h

Where “and” joins values, the source holds several entries; their conditions need not be identical. Equal values may be shown once.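 Interpolation was linear, between the two tested concentrations surrounding the appropriate level; five concentrations were tested over 48 hours in 96-well plates. GI50: concentration for 50% inhibition of growth. TGI marks complete inhibition of growth.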 Some results are limits rather than exact numbers.

Turning to `CCCCC(=C=C1CCCCC1O)C1CCCN1C(=O)OC(C)(C)C` (stereo not given), the TGI in the test on DU-145 prostate came out at 31.4 µM; with HCT-116 colon, 27.3 µM; with HT29 colon it was 27.3 µM; in the test on IGROV1 ovarian, 31.1 µM; in the test on MCF7 breast it was 31.6 µM; with NCI-H226 lung, 34.8 µM. For the same compound, the TGI turned out to be 29.1 µM with OVCAR-3 ovarian, 34.6 µM with OVCAR-8 ovarian, 30.9 µM in the test on SK-MEL-5 melanoma and 31.2 µM in the test with SK-OV-3 ovarian.

`COC(=O)C1(Cc2ccccc2)Cc2ccccc2C1=O` (stereo not given): the TGI with DU-145 prostate, with HCT-116 colon, with HT29 colon, with IGROV1 ovarian, in the test on MCF7 breast and in the test on NCI-H226 lung was more than 100 µM throughout. The TGI is more than 100 µM with OVCAR-3 ovarian, more than 100 µM with OVCAR-8 ovarian, 44 µM in the test on SK-MEL-5 melanoma and more than 100 µM in the test on SK-OV-3 ovarian.

Turning to `CC(=O)Nc1ncc2c(n1)-c1ccccc1OC2`, the TGI with DU-145 prostate, in the test with HCT-116 colon, in the test with HT29 colon, in the test on IGROV1 ovarian, with MCF7 breast and with NCI-H226 lung was more than 100 µM each time. In addition, the TGI in the test with OVCAR-3 ovarian, with OVCAR-8 ovarian, in the test on SK-MEL-5 melanoma and in the test with SK-OV-3 ovarian was more than 100 µM throughout.

On to `COc1ccc(C=O)cc1Oc1ccc(C[C@H]2c3c(cc(OC)c4c3Oc3cc5c(cc3O4)CCN(C)C5=O)CCN2C)cc1`, for which the TGI in the test on DU-145 prostate was determined as 25.2 µM; with HCT-116 colon, 15 µM; in the test with HT29 colon, 14.4 µM; in the test with IGROV1 ovarian, 13.7 µM; with MCF7 breast it was 22.5 µM; in the test with NCI-H226 lung, 16.8 µM. Also, the TGI is 15.4 µM in the test on OVCAR-3 ovarian, 15.2 µM in the test with OVCAR-8 ovarian, 19.4 µM in the test on SK-MEL-5 melanoma and 17.5 µM with SK-OV-3 ovarian.

Turning to `O=C1N2CCc3c([nH]c4ccccc34)C23CC2CCCC12S3` (stereo not given), the TGI in the test on DU-145 prostate, in the test on HCT-116 colon, in the test with HT29 colon, with IGROV1 ovarian, in the test on MCF7 breast and in the test on NCI-H226 lung was more than 50 µM in each case. The TGI in the test with OVCAR-3 ovarian, with OVCAR-8 ovarian, in the test on SK-MEL-5 melanoma and in the test on SK-OV-3 ovarian was more than 50 µM each time.

With `COCCCN1C(=O)C2c3[nH]c4ccccc4c3C3CCC(C(C)(C)C)CC3C2C1=O` (stereo not given), the TGI in the test on DU-145 prostate was more than 100 µM; in the test on HCT-116 colon it was 38.6 µM; in the test on HT29 colon, 34 µM; in the test on IGROV1 ovarian, more than 100 µM; with MCF7 breast, 56.2 µM; in the test on NCI-H226 lung, 60.6 µM. The TGI is 35.9 µM with OVCAR-3 ovarian, more than 100 µM in the test with OVCAR-8 ovarian, 82.4 µM with SK-MEL-5 melanoma and more than 100 µM with SK-OV-3 ovarian.

Take `COc1cc(O)c2c(c1)C(O)C(O)CC1OC1C(=O)/C=C/CC(C)OC2=O` (stereo not given): the TGI in the test with DU-145 prostate is more than 72.2 µM; with HCT-116 colon, 12.2 µM; with HT29 colon it was 10 µM; with IGROV1 ovarian, 20.1 µM; with MCF7 breast, 16.3 µM; in the test on NCI-H226 lung, 33.9 µM. For the same compound, the TGI in the test with OVCAR-3 ovarian was 16.7 µM; with OVCAR-8 ovarian, 25 µM; with SK-MEL-5 melanoma, 15.4 µM; with SK-OV-3 ovarian, more than 64.9 µM.

For `COc1ccc([C@@]23CCC(=O)C[C@@H]2N(C)CC3)cc1OC`, the TGI with DU-145 prostate, in the test on HT29 colon, in the test with IGROV1 ovarian, with MCF7 breast, with NCI-H226 lung and in the test with OVCAR-3 ovarian was more than 100 µM each time. The TGI in the test on OVCAR-8 ovarian, in the test on SK-MEL-5 melanoma and with SK-OV-3 ovarian was more than 100 µM throughout.

Take `CCOc1ccc(NC(=S)/N=C/C(C(=O)Nc2ccccc2C)=C(\C)O)cc1`: the TGI in the test with DU-145 prostate, with HCT-116 colon, in the test with HT29 colon, in the test on IGROV1 ovarian, in the test with MCF7 breast and with NCI-H226 lung was more than 100 µM in each case. Besides, the TGI in the test on OVCAR-3 ovarian, with OVCAR-8 ovarian, with SK-MEL-5 melanoma and with SK-OV-3 ovarian was more than 100 µM each time.

Turning to `O=C(O)CNC(=O)c1cccc2c(=O)c3ccccc3[nH]c12`, the TGI in the test on DU-145 prostate, in the test with HCT-116 colon, with HT29 colon, in the test on IGROV1 ovarian, in the test on MCF7 breast and in the test with NCI-H226 lung was more than 100 µM throughout. Moreover, the TGI in the test with OVCAR-3 ovarian, in the test with OVCAR-8 ovarian, in the test on SK-MEL-5 melanoma and with SK-OV-3 ovarian was more than 100 µM each time.

Turning to `O=C(Nc1ccccc1)N1N=C(c2ccccc2)C1c1ccccc1` (stereo not given), the TGI in the test on DU-145 prostate is more than 100 µM; with HCT-116 colon, 44.8 µM; in the test with HT29 colon, 39.8 µM; in the test on IGROV1 ovarian, more than 100 µM; in the test with MCF7 breast it was 51.8 µM; in the test on NCI-H226 lung it was 37.3 µM. Further, the TGI is 42.1 µM in the test with OVCAR-3 ovarian, more than 100 µM in the test with OVCAR-8 ovarian, 54.7 µM with SK-MEL-5 melanoma and more than 100 µM in the test with SK-OV-3 ovarian.

`CC(C)CC1c2[nH]c3ccccc3c2C[C@H]2C(=O)NC(COC(C)(C)C)C(=O)N12` (stereo not given in full): the TGI is more than 100 µM in the test on DU-145 prostate; 37.9 µM in the test on HCT-116 colon; 38.3 µM with HT29 colon; 63.1 µM with IGROV1 ovarian; more than 100 µM in the test on MCF7 breast; 93 µM in the test on NCI-H226 lung. Further, the TGI in the test with OVCAR-3 ovarian was 16.3 µM; with OVCAR-8 ovarian it was more than 100 µM; in the test with SK-MEL-5 melanoma, 47.4 µM; with SK-OV-3 ovarian, more than 100 µM.

`C=CCN1C(=O)/C(=C/c2ccc(Cl)cc2)N=C1SC1OC(COC(C)=O)C(OC(C)=O)C(OC(C)=O)C1OC(C)=O` (stereo not given): the TGI in the test on DU-145 prostate was more than 100 µM; with HCT-116 colon, 87.5 µM; with HT29 colon it was more than 100 µM; with IGROV1 ovarian, more than 100 µM; in the test on MCF7 breast it was more than 100 µM; with NCI-H226 lung, 24.5 µM and 78 µM. The TGI was more than 100 µM in the test on OVCAR-3 ovarian; 36 µM and 81.4 µM in the test with OVCAR-8 ovarian; more than 100 µM in the test with SK-MEL-5 melanoma; > 61.8 µM and 65.6 µM with SK-OV-3 ovarian. Moreover, in the test with NCI-H226 lung, the GI50 was 9.63 µM and 21.9 µM.

For the origin of these results see PubChem BioAssay (NCI).
